Test results published in patent publication US8871772B2, “Therapeutic methods and compounds” (Ampio Pharmaceuticals, Inc., priority 2008, dated 2014).

Key:
Type in all cases: cell-based
[1] = tested on: STTG grade 4 astrocytoma cell line; experiment: Proliferation of STTG cancer cells, Promega cell titer assay; details: 20 μM, 96 hours, negative number = increase
Experimental: (§1) Assays were performed to determine the effect of Cpd. 5 (synthesis described in Example 1) on proliferation of two cancer cell lines. These two cell lines were STTG grade 4 astrocytoma cell line and AU565 breast cancer cell line. Both cell lines were obtained from American Type Culture Collection, Rockville, Md. (ATCC).
(§2) To perform the assays, a 50 mM stock solution of Cpd. 5 was prepared in DMSO and frozen at −80° C. Aliquots of the stock solution were removed and 100 μM dilutions were made in Iscove's modified Dulbecco's medium (IMDM; obtained from ATCC) supplemented with 10% fetal bovine serum (FBS) and penicillin/streptomycin solution. Controls containing equivalent amounts of DMSO to the 100 μM solution were mixed for comparative purposes. 100 μl of the resulting solutions were then added to 96 well culture plates in triplicate and placed in a 37° C. incubator with 5% CO2 to warm.
(§3) At this point, cells were removed from passage flasks using trypsin and counted using trypan blue to establish cell counts/ml and viability. For all experiments, viability of cells was greater than 95%. Solutions of 4,000 cells/100 μl were prepared in the medium from above and 100 μl of the solutions were added to each well of the plates. The plates were placed back in the incubator and incubated with the compounds for 96 hours.
(§4) Following incubation, cell proliferation was assayed by adding 20 μl Promega cell titer aqueous one reagent to each well. […] The plates were incubated at 37° C. for an additional 4-18 hours to allow the colorimetric assay to develop, and the OD of each well was determined in a microplate reader using a 530 nm filter. The OD of wells containing cell titer reagent in culture medium with no cells was subtracted from the OD of all experimental readings.
(§5) The % decrease of the total cell titer signal was determined using the following formula. […] The p values were calculated versus diluent controls.

[2] = tested on: U-118 metastatic astrocytoma cell line; experiment: Proliferation of U-118 cancer cells, Promega cell titer assay
Experimental: Assays were performed to determine the effect of Cpd. 5 on proliferation of an additional cancer cell line. This cell line was the U-118 metastatic astrocytoma cell line. It was obtained from ATCC.
To perform the assays, a 50 mM stock solution of Cpd. 5 was prepared in DMSO and frozen at −80° C. […] Controls containing equivalent amounts of DMSO to the 300 μM solution were mixed for comparative purposes. 100 μl of the resulting solutions were then added to 96 well culture plates in triplicate and placed in a 37° C. incubator with 5% CO2 to warm.
as §3, with “Cells” for “At this point, cells”, “trypsin and ethylenediaminetetracetic acid (EDTA)” for “trypsin”, “above,” for “above”
Following incubation, cell proliferation was assayed by adding 20 μl Promega cell titer aqueous one reagent to each well. Promega cell titer reagent is a solution containing a tetrazolium dye that is reduced by living cells to a formazan dye, and this reduction is proportional to the number of living cells present in the well. The plates were incubated at 37° C. for an additional 4 hours to allow the colorimetric assay to develop, and the OD of each well was determined in a microplate reader using a 530 nm filter. The OD of wells containing cell titer reagent in culture medium with no cells was subtracted from the OD of all experimental readings.
The % decrease of the total cell titer signal was determined using the following formula. ((Diluent OD−Experimental OD)/Diluent OD))×100. Data are presented in Table 5 as mean % decrease of cell titer signal of three separate experiments, plus or minus standard deviation. In the mean % decrease column, a positive number means a decrease in cell titer signal, while a negative number means an increase in cell titer signal. The p values were calculated versus diluent controls.
The above experiment was repeated using the U-118 cells at 3000 cells/well.

[3] = tested on: AU565 breast cancer cell line; experiment: Proliferation of AU565 cancer cells, Promega cell titer assay; details: AU565, 20 μM, 96 hours; negative number = increase
Experimental: as §1, §2, §3, §4, §5

SMILES: O=c1cc(N2CCNCC2)oc2c(-c3ccccc3)cccc12 [LY303511, reference compound]
- MEAN % DECREASE of cell titer signal [1]: −4.74%
- MEAN % DECREASE of cell titer signal ([2]; U-118, 3000 cells/well, 40 μM final): 0.41%
- MEAN % DECREASE of cell titer signal ([2]; U-118, 4,000 cells/well, 20 μM final, 96 hours): −25.93%
- MEAN % DECREASE of cell titer signal [3]: −2.34%
